Source: the NIST ThermoML archive (doi:10.1016/j.fluid.2015.09.010)

Assay: xn = mol fraction of the nth substance listed
Settings: Gas, single sinker densimeter

F/C=C/C(F)(F)F [trans-1,3,3,3-tetrafluoropropene] + CCC
Settings | mass density [kg/m3]
258.15 K, 100.61 kPa, x1 = 0.3426 | 3.2856
258.15 K, 196.38 kPa, x1 = 0.168 | 5.3883
258.15 K, 283.13 kPa, x1 = 0.168 | 7.9775
258.16 K, 100.07 kPa, x1 = 0.168 | 2.6751
258.16 K, 161.36 kPa, x1 = 0.3426 | 5.3604
258.18 K, 242.52 kPa, x1 = 0.3426 | 8.2589
263.19 K, 101.37 kPa, x1 = 0.3426 | 3.2412
263.19 K, 283.01 kPa, x1 = 0.3426 | 9.5248
263.2 K, 100.13 kPa, x1 = 0.168 | 2.6195
263.2 K, 200.66 kPa, x1 = 0.3426 | 6.5891
263.2 K, 209.39 kPa, x1 = 0.168 | 5.6353
263.2 K, 326.36 kPa, x1 = 0.168 | 9.0877
263.21 K, 228.28 kPa, x1 = 0.5076 | 8.8723
263.22 K, 100.69 kPa, x1 = 0.5076 | 3.7656
263.22 K, 168.02 kPa, x1 = 0.5076 | 6.4065
268.16 K, 332.61 kPa, x1 = 0.3431 | 11.1032
268.16 K, 332.62 kPa, x1 = 0.3431 | 11.1044
268.17 K, 101.25 kPa, x1 = 0.168 | 2.5987
268.17 K, 101.55 kPa, x1 = 0.679 | 4.2921
268.17 K, 164.37 kPa, x1 = 0.679 | 7.0737
268.17 K, 201.77 kPa, x1 = 0.3431 | 6.4883
268.17 K, 227.73 kPa, x1 = 0.679 | 9.9973
268.18 K, 202.12 kPa, x1 = 0.5076 | 7.6182
268.18 K, 248.05 kPa, x1 = 0.168 | 6.5968
268.18 K, 396.76 kPa, x1 = 0.168 | 11.0064
268.19 K, 101.5 kPa, x1 = 0.3431 | 3.1825
268.19 K, 104.3 kPa, x1 = 0.5076 | 3.83
268.2 K, 297.38 kPa, x1 = 0.5076 | 11.5325
273.16 K, 335.7 kPa, x1 = 0.168 | 8.9351
273.16 K, 451.06 kPa, x1 = 0.168 | 12.3973
273.17 K, 100.67 kPa, x1 = 0.3426 | 3.0918
273.17 K, 101.01 kPa, x1 = 0.168 | 2.541
273.17 K, 239.94 kPa, x1 = 0.3426 | 7.62
273.18 K, 102.27 kPa, x1 = 0.5076 | 3.6758
273.18 K, 200.45 kPa, x1 = 0.5076 | 7.3826
273.18 K, 209.57 kPa, x1 = 0.168 | 5.4023
273.18 K, 354.79 kPa, x1 = 0.5076 | 13.6621
273.18 K, 373.24 kPa, x1 = 0.3426 | 12.2939
273.18 K, 413.03 kPa, x1 = 0.3426 | 13.7671
273.2 K, 100.65 kPa, x1 = 0.679 | 4.1755
273.2 K, 206.18 kPa, x1 = 0.679 | 8.804
273.21 K, 292.51 kPa, x1 = 0.679 | 12.8266
278.16 K, 417.17 kPa, x1 = 0.3431 | 13.5784
278.17 K, 309.55 kPa, x1 = 0.3431 | 9.7917
278.18 K, 526.01 kPa, x1 = 0.168 | 14.3898
278.19 K, 99.65 kPa, x1 = 0.5076 | 3.5099
278.19 K, 100.62 kPa, x1 = 0.3431 | 3.0318
278.19 K, 101.41 kPa, x1 = 0.168 | 2.5025
278.19 K, 191.78 kPa, x1 = 0.5076 | 6.9037
278.19 K, 198.9 kPa, x1 = 0.3431 | 6.1248
278.19 K, 207 kPa, x1 = 0.168 | 5.2225
278.19 K, 297.09 kPa, x1 = 0.5076 | 10.9954
278.19 K, 309.62 kPa, x1 = 0.168 | 7.9983
278.19 K, 399.16 kPa, x1 = 0.5076 | 15.2118
278.19 K, 401.11 kPa, x1 = 0.168 | 10.6025
278.2 K, 223.87 kPa, x1 = 0.679 | 9.3941
278.21 K, 100.47 kPa, x1 = 0.679 | 4.0836
278.21 K, 100.48 kPa, x1 = 0.8949 | 4.7788
278.21 K, 170.26 kPa, x1 = 0.8949 | 8.2642
278.21 K, 223.89 kPa, x1 = 0.679 | 9.3939
278.21 K, 278.18 kPa, x1 = 0.8949 | 13.9927
278.22 K, 349.38 kPa, x1 = 0.679 | 15.2188
283.16 K, 205.37 kPa, x1 = 0.3426 | 6.1995
283.16 K, 338.25 kPa, x1 = 0.3426 | 10.53
283.17 K, 101.18 kPa, x1 = 0.3426 | 2.9879
283.17 K, 449.59 kPa, x1 = 0.3426 | 14.3925
283.18 K, 580.09 kPa, x1 = 0.3426 | 19.2575
283.19 K, 100.44 kPa, x1 = 0.168 | 2.4312
283.19 K, 198.03 kPa, x1 = 0.168 | 4.884
283.19 K, 220.83 kPa, x1 = 0.5076 | 7.8406
283.19 K, 312.57 kPa, x1 = 0.168 | 7.9025
283.19 K, 369.65 kPa, x1 = 0.5076 | 13.6268
283.19 K, 411.95 kPa, x1 = 0.168 | 10.6601
283.19 K, 498.32 kPa, x1 = 0.5076 | 19.0511
283.19 K, 515.38 kPa, x1 = 0.168 | 13.6875
283.19 K, 612.31 kPa, x1 = 0.168 | 16.7013
283.2 K, 100.73 kPa, x1 = 0.679 | 4.0148
283.2 K, 101.73 kPa, x1 = 0.5076 | 3.5184
283.2 K, 202.42 kPa, x1 = 0.679 | 8.2655
283.2 K, 307.97 kPa, x1 = 0.679 | 12.9389
283.21 K, 409.61 kPa, x1 = 0.679 | 17.7339
283.23 K, 209.78 kPa, x1 = 0.8949 | 10.0762
283.23 K, 328.84 kPa, x1 = 0.8949 | 16.4078
283.24 K, 102.25 kPa, x1 = 0.8949 | 4.7652
288.24 K, 101.08 kPa, x1 = 0.3426 | 2.9277
288.24 K, 229.6 kPa, x1 = 0.3426 | 6.8193
288.25 K, 344.87 kPa, x1 = 0.3426 | 10.4999
288.25 K, 452.7 kPa, x1 = 0.3426 | 14.1363
288.25 K, 583.57 kPa, x1 = 0.3426 | 18.8469
288.25 K, 689.73 kPa, x1 = 0.3426 | 22.9563
288.26 K, 595.72 kPa, x1 = 0.168 | 15.7412
288.26 K, 711.04 kPa, x1 = 0.168 | 19.385
288.27 K, 213.38 kPa, x1 = 0.168 | 5.1751
288.27 K, 334.82 kPa, x1 = 0.168 | 8.3244
288.27 K, 445.46 kPa, x1 = 0.168 | 11.3478
288.28 K, 101.56 kPa, x1 = 0.168 | 2.4124
288.29 K, 101.07 kPa, x1 = 0.5076 | 3.4268
288.29 K, 220.99 kPa, x1 = 0.5076 | 7.6809
288.29 K, 444.05 kPa, x1 = 0.5076 | 16.2865
288.29 K, 578.73 kPa, x1 = 0.5076 | 22.0366
288.3 K, 101.4 kPa, x1 = 0.679 | 3.9663
288.3 K, 227.2 kPa, x1 = 0.679 | 9.1436
288.3 K, 333.95 kPa, x1 = 0.5076 | 11.9154
288.31 K, 348.56 kPa, x1 = 0.679 | 14.4714
288.31 K, 484.09 kPa, x1 = 0.679 | 20.8941
288.32 K, 385.31 kPa, x1 = 0.8949 | 19.104
288.34 K, 101.12 kPa, x1 = 0.8949 | 4.6234
288.34 K, 236.83 kPa, x1 = 0.8949 | 11.2187
293.25 K, 588.13 kPa, x1 = 0.3426 | 18.534
293.25 K, 709.61 kPa, x1 = 0.3426 | 23.0845
293.26 K, 208.73 kPa, x1 = 0.3426 | 6.0545
293.26 K, 452.62 kPa, x1 = 0.3426 | 13.8135
293.27 K, 101.3 kPa, x1 = 0.3426 | 2.8816
293.27 K, 329.2 kPa, x1 = 0.3426 | 9.782
293.28 K, 208.37 kPa, x1 = 0.5076 | 7.0836
293.28 K, 290.55 kPa, x1 = 0.168 | 7.0037
293.28 K, 407.44 kPa, x1 = 0.168 | 10.0558
293.29 K, 98.9 kPa, x1 = 0.5076 | 3.2914
293.29 K, 100.13 kPa, x1 = 0.168 | 2.3324
293.29 K, 198.29 kPa, x1 = 0.168 | 4.6983
293.29 K, 317.13 kPa, x1 = 0.5076 | 11.031
293.29 K, 429.96 kPa, x1 = 0.5076 | 15.3484
293.29 K, 515.52 kPa, x1 = 0.168 | 13.0247
293.29 K, 530.45 kPa, x1 = 0.5076 | 19.4174
293.29 K, 612.66 kPa, x1 = 0.168 | 15.8319
293.29 K, 715.58 kPa, x1 = 0.168 | 18.9724
293.29 K, 825.52 kPa, x1 = 0.168 | 22.5539
293.3 K, 210.11 kPa, x1 = 0.679 | 8.2494
293.3 K, 641.29 kPa, x1 = 0.5076 | 24.1912
293.31 K, 101.19 kPa, x1 = 0.679 | 3.8833
293.31 K, 324.6 kPa, x1 = 0.679 | 13.0914
293.32 K, 432.86 kPa, x1 = 0.679 | 17.9448
293.32 K, 546.41 kPa, x1 = 0.679 | 23.3906
293.34 K, 454.67 kPa, x1 = 0.8949 | 22.4737
293.35 K, 100.25 kPa, x1 = 0.8949 | 4.4951
293.35 K, 226.08 kPa, x1 = 0.8949 | 10.452
293.35 K, 345.6 kPa, x1 = 0.8949 | 16.5159
